Here are results for 24 molecules from patent US7732447B2, “Fused [d]pyridazin-7-ones” (Cephalon, Inc., priority 2006, dated 2010).

Structures are written as SMILES.

What is called inhibition is how much of the control response was suppressed. In general, IC50 refers to the concentration that inhibits the measured activity by half. As usually defined, the melting point is the temperature, or range, at which the solid turns liquid.

One data set addresses T1, MLK1 (GST-MLK1KD) (Homo sapiens, UniProt P80192).
T1 construct: 1 μg/mL of baculoviral GST-MLK1KD (Lot 23.1A); GST; made in house
Briefly: Mixed Lineage Kinase-1 inhibition assay (32P, myelin basic protein). In kind it is biochemical. Particulars: 60 μM ATP; for inhibition at 1 µM: 1 uM compound, read-out: MLK-1 % inhibition @ 1 uM; for IC50: read-out: MLK-1 IC50. As to the method:
The activity assay for MLK1 was performed using the 96-well Millipore Multiscreen plate format. Each 50-μL assay mixture contained 50 mM HEPES (pH 7.0), 1 mM EGTA, 10 mM MgCl2, 1 mM DTT, 25 mM β-glycerophosphate, 60 μM ATP, 1 μCi [γ-^32P]ATP, 0.1% BSA, 500 μg/mL myelin basic protein (Upstate #13-104), 2% DMSO, various concentrations of test compound, and 1 μg/mL of baculoviral GST-MLK1KD (Lot 23.1A). Samples were incubated for 15 minutes at 37° C. The reaction was stopped by adding ice-cold 50% trichloroacetic acid (TCA) and the proteins were allowed to precipitate for 30 minutes at 4° C. The plates were then washed with ice-cold 25% TCA. Supermix scintillation cocktail was added, and the plates were allowed to equilibrate for 1-2 hours prior to counting in the Wallac MicroBeta 1450 Plus scintillation counter.

Data set [1] deals with T2, vascular endothelial growth factor receptor-2 (VEGFR2) cytoplasmic domain (Homo sapiens, UniProt P35968).
T2 construct: recombinant baculovirus-expressed vascular endothelial growth factor receptor-2 (VEGFR2) cytoplasmic domain; made in house
As to the kind of experiment: Vascular Endothelial Growth Factor Receptor-2 kinase inhibition assay (TRF). Particulars: 300 nM compound; 40 μM ATP; read-out: VEGFR-2 % inhibition @ 300 nM. In kind it is biochemical. The protocol: Compounds were tested for their ability to inhibit the kinase activity of recombinant baculovirus-expressed vascular endothelial growth factor receptor-2 (VEGFR2) cytoplasmic domain using the time-resolved fluorescence (TRF) detection system. IC50s were conducted in 96-well Costar high binding plates (Corning Costar #3922, Corning, N.Y.). Briefly, each 96-well plate was coated with 100 μL/well of 10 μg/mL recombinant substrate, glutathione S-transferase-phospholipase C-γ fusion protein (GST-PLCγ Lot # 3P5.1A), in Tris-buffered saline (TBS). The VEGFR2 assay mixture (total volume=100 μL/well) consisting of 20 mM HEPES, pH 7.2, 40 μM ATP, 10 mM MnCl2, 0.1% bovine serum albumin (BSA), and test compound (diluted in DMSO; 2.5% DMSO final in assay) was then added to the assay plate. Enzyme (30 ng/mL VEGFR2 Lot # V2g-2.1A) was added and the reaction was allowed to proceed at 37° C. for 15 minutes. Detection of the phosphorylated product was performed by adding 100 μL/well of Eu-N1 labeled PY100 antibody (PerkinElmer Life Sciences #AD0160, Boston, Mass.) diluted 1:5000 in 0.25% BSA in TBS containing 0.05% Tween-20 (TBS-T). Incubation at 37° C. then proceeded for 1 hour, followed by addition of 100 μL enhancement solution (PerkinElmer Life Sciences #1244-105, Boston, Mass.). The plate was gently agitated and after 30 minutes, the fluorescence of the resulting solution was measured using the PerkinElmer EnVision 2100 (or 2102) multilabel plate reader.

The target of a further data set is CDK5/GST-p25 (Homo sapiens, UniProt Q00535). Briefly: Cyclin-Dependent Kinase 5 inhibition assay (TRF). Particulars: 10 μM ATP; read-out: CDK-5 IC50. In kind it is biochemical. As to the method:
Compounds were tested for their ability to inhibit the kinase activity of baculovirus-expressed cyclin-dependent kinase-5 complexed with GST-p25 (CDK5/GST-p25) using a a TRF detection system. Each 96-well Costar high binding plate (Corning Costar #3922, Corning, N.Y.) was coated with 100 μL/well of 50 μg/mL recombinant GST-tagged substrate [GST-retinoblastoma protein (Rb) Lot # 5.1A] in TBS. The CDK5/GST-p25 assay mixture (total volume=100 μL/well) consisting of 20 mM HEPES, pH 7.2, 10 μM ATP, 10 mM MgCl2, 5 mM EGTA, 25 mM β-glycerophosphate, 0.1% BSA, 2.5% DMSO, and various concentrations of test compound were then added to the assay plate. Enzyme (2 ng/mL CDK5/GST-p25 Lot # p25/CD5-3) was added and the reaction was allowed to proceed at 37° C. for 20 minutes. Detection of the phosphorylated product was performed by adding 100 μL/well of phospho-Rb (Ser-780) antibody (Cell Signaling #9307, Beverly, Mass.) diluted 1:10,000 in antibody dilution buffer (0.1% BSA in TBS-T). After 1-hour incubation at room temperature, 100 μL/well of Eu—N1 labelled anti-rabbit antibody diluted 1:50,000 in antibody dilution buffer (PerkinElmer Life Sciences #AD0105, Boston, Mass.) was added. Incubation at room temperature then proceeded for 1 hour, followed by addition of 100 μl enhancement solution (PerkinElmer Life Sciences #1244-105, Boston, Mass.). The plate was gently agitated and after a few minutes, the fluorescence of the resulting solution was measured using the PerkinElmer EnVision 2100 (or 2102) multilabel plate reader.

Sequence of CDK5/GST-p25 (Q00535 whole entry, species assumed): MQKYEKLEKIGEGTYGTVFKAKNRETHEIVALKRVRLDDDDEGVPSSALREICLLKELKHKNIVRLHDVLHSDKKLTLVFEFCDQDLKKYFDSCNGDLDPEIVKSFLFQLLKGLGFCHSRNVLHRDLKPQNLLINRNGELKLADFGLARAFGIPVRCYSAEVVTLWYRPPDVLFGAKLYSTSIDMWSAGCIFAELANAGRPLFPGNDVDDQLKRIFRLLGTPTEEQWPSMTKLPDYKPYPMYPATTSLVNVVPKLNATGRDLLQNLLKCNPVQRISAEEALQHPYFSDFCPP
Sequence of CDK5/GST-p25 (Q15078 99-307 partner limits assumed, species assumed): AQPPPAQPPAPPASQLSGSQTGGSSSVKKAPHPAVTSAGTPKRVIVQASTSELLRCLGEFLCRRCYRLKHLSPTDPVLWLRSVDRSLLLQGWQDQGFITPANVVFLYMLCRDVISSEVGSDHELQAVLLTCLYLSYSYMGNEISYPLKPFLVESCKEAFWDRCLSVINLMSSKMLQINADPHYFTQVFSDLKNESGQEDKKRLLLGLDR
T1 sequence (P80192 144-412 limits assumed, species assumed): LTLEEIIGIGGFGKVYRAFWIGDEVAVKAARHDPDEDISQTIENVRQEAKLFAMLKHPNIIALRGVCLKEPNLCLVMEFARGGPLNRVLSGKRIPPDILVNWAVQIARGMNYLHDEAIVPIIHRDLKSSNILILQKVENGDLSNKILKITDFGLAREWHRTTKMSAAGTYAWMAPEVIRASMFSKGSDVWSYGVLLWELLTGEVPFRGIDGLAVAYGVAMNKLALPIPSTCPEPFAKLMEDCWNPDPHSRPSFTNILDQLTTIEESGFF
T2 sequence (P35968 786-1356 limits assumed, species assumed): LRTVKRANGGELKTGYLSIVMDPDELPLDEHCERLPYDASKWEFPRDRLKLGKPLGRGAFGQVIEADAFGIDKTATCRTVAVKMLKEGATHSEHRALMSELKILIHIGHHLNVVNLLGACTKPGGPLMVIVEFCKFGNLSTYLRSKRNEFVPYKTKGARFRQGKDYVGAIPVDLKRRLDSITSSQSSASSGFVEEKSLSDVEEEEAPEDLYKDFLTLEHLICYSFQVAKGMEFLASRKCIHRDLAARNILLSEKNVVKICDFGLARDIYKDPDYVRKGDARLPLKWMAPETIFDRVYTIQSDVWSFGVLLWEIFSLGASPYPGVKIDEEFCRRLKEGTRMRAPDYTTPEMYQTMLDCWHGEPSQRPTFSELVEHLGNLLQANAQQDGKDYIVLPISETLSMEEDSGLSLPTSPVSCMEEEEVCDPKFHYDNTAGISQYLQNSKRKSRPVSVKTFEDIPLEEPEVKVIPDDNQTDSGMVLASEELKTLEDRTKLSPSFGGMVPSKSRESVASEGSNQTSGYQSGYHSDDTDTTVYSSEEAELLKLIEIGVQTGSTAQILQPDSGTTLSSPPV

Turning to `O=c1[nH]nc(-c2cc3ccccc3o2)c2[nH]c3ccc(OCc4ccccc4)cc3c12` [Example 4o, 4-Benzofuran-2-yl-8-benzyloxy-2,5-dihydro-pyridazino[4,5-b]indol-1-one], on MLK1 (GST-MLK1KD), the inhibition at 1 µM stood at 73% and the IC50 is 381 nM. In data set [1], the inhibition at 0.3 µM was found to be 10%.

As for `O=c1[nH]nc(-c2cnc3ccccc3n2)c2[nH]c3ccccc3c12` [Example 4j, 4-Quinoxalin-2-yl-2,5-dihydro-pyridazino[4,5-b]indol-1-one], the inhibition at 1 µM on MLK1 (GST-MLK1KD) worked out at 0%. Also, the inhibition at 0.3 µM in data set [1] is 0%.

Consider `O=c1[nH]nc(-c2ccc(O)cc2)c2[nH]c3ccccc3c12` [Example 4s, 4-(4-Hydroxy-phenyl)-2,5-dihydro-pyridazino[4,5-b]indol-1-one], for which the melting point is more than 300 °C. Also, on CDK5/GST-p25, the half-maximal inhibitory concentration (IC50) is 0.657 µM.

Regarding `O=c1[nH]nc(-c2ccncc2)c2[nH]c3ccccc3c12` [Example 4d, 4-Pyridin-4-yl-2,5-dihydro-pyridazino[4,5-b]indol-1-one], the inhibition at 1 µM at MLK1 (GST-MLK1KD) was 0%. Further, the IC50 at CDK5/GST-p25 was 3.82 µM. Further, the inhibition at 0.3 µM in data set [1] stood at 18%.

For `Cn1c2ccccc2c2c(=O)[nH]nc(-c3cc4ccccc4s3)c21` [Example 11b, 4-Benzo[b]thiophen-2-yl-5-methyl-2,5-dihydro-pyridazino[4,5-b]indol-1-one], at MLK1 (GST-MLK1KD), the inhibition at 1 µM stood at 0%. For the same molecule, the inhibition at 0.3 µM in data set [1] was determined as 0%.

As to `O=c1[nH]nc(-c2nccs2)c2[nH]c3ccccc3c12` [Example 4f, 4-Thiazo-2-yl-2,5-dihydro-pyridazino[4,5-b]indol-1-one], at MLK1 (GST-MLK1KD), the inhibition at 1 µM worked out at 5%. The inhibition at 0.3 µM in data set [1] is 0%.

As to `Cn1c2ccccc2c2c(=O)[nH]nc(-c3cc4ccccc4o3)c21` [Example 11a, 4-Benzofuran-2-yl-5-methyl-2,5-dihydro-pyridazino[4,5-b]indol-1-one], the inhibition at 1 µM at MLK1 (GST-MLK1KD) was found to be 19%. The inhibition at 0.3 µM in data set [1] was 0%.

Regarding `Cc1ccc(-c2n[nH]c(=O)c3c2[nH]c2ccccc23)o1` [Example 4e, 4-(5-Methyl-furan-2-yl)-2,5-dihydro-pyridazino[4,5-b]indol-1-one], the inhibition at 1 µM on MLK1 (GST-MLK1KD) came out at 10%. The inhibition at 0.3 µM in data set [1] was determined as 4%.

With `COc1ccc2[nH]c3c(-c4cc5ccccc5o4)n[nH]c(=O)c3c2c1` [Example 4l, 4-Benzofuran-2-yl-8-methoxy-2,5-dihydro-pyridazino[4,5-b]indol-1-one], at MLK1 (GST-MLK1KD), the inhibition at 1 µM is 53% and the IC50 came to 1020 nM. Also, the inhibition at 0.3 µM in data set [1] was 9%.

For `O=c1[nH]nc(-c2cc3ccccc3s2)c2c1[nH]c1ccccc12` [Example 14b, 1-Benzo[b]thiophen-2-yl-3,5-dihydro-pyridazino[4,5-b]indol-4-one], at MLK1 (GST-MLK1KD), the inhibition at 1 µM is 0%. In addition, the inhibition at 0.3 µM in data set [1] was found to be 3%.

As for `O=c1[nH]nc(-c2ccc3ccccc3c2)c2c1[nH]c1ccccc12` [Example 14c, 1-Naphthalen-2-yl-3,5-dihydro-pyridazino[4,5-b]indol-4-one], the inhibition at 1 µM at MLK1 (GST-MLK1KD) is 12%. The inhibition at 0.3 µM in data set [1] was 1%.

For `Cn1ccnc1-c1n[nH]c(=O)c2c1[nH]c1ccccc12` [Example 4g, 4-(1-Methyl-1H-imidazol-2-yl)-2,5-dihydro-pyridazino[4,5-b]indol-1-one], at MLK1 (GST-MLK1KD), the inhibition at 1 µM was 2%. Further, the inhibition at 0.3 µM in data set [1] is 0%.

Turning to `O=c1[nH]nc(-c2ccc(-c3ccccc3)cc2)c2[nH]c3ccccc3c12` [Example 4i, 4-Biphenyl-4-yl-2,5-dihydro-pyridazino[4,5-b]indol-1-one], the inhibition at 1 µM at MLK1 (GST-MLK1KD) is 14%. Further, the inhibition at 0.3 µM in data set [1] was 16%.

Regarding `Cn1c(-c2n[nH]c(=O)c3c2[nH]c2ccccc23)nc2ccccc21` [Example 4h, 4-(1-Methyl-1H-benzoimidazol-2-yl)-2,5-dihydro-pyridazino[4,5-b]indol-1-one], the inhibition at 1 µM at MLK1 (GST-MLK1KD) turned out to be 0%. In data set [1], the inhibition at 0.3 µM came to 0%.

In the case of `Cn1c2ccccc2c2c(=O)[nH]nc(-c3ccc4ccccc4c3)c21` [Example 11c, 5-Methyl-4-naphthalen-2-yl-2,5-dihydro-pyridazino[4,5-b]indol-1-one], on MLK1 (GST-MLK1KD), the inhibition at 1 µM stood at 0%. Besides, the inhibition at 0.3 µM in data set [1] is 3%.

On to `O=c1[nH]nc(-c2ccc(O)cc2)c2c1[nH]c1ccccc12` [Example 14e, 1-(4-Hydroxy-phenyl)-3,5-dihydro-pyridazino[4,5-b]indol-4-one], for which the half-maximal inhibitory concentration (IC50) on CDK5/GST-p25 was more than 3 µM.

With `O=c1[nH]nc(-c2ccncc2)c2[nH]c3ccc([N+](=O)[O-])cc3c12` [Example 4v, 8-Nitro-4-pyridin-4-yl-2,5-dihydro-pyridazino[4,5-b]indol-1-one], the IC50 at CDK5/GST-p25 was more than 3 µM.

For the molecule `O=c1[nH]nc(-c2cc3ccccc3o2)c2[nH]c3cc4c(cc3c12)OCO4` [Example 4m, 8-Benzofuran-2-yl-6,9-dihydro-1,3-dioxa-6,7,9-triaza-cyclopenta[b]fluoren-5-one], the inhibition at 1 µM on MLK1 (GST-MLK1KD) came to 46%. Moreover, the inhibition at 0.3 µM in data set [1] came out at 0%.

In the case of `O=c1[nH]nc(-c2cc3ccccc3o2)c2[nH]c3ccccc3c12` [Example 4k, 4-Benzofuran-2-yl-2,5-dihydro-pyridazino[4,5-b]indol-1-one], at MLK1 (GST-MLK1KD), the inhibition at 1 µM came out at 41% and the concentration for half-maximal inhibition (IC50) was 2660 nM. For the same molecule, in data set [1], the inhibition at 0.3 µM was 0%.

Regarding `O=c1[nH]nc(-c2cc3ccccc3o2)c2[nH]c3cc(OCc4ccccc4)ccc3c12` [Example 4p, 4-Benzofuran-2-yl-7-benzyloxy-2,5-dihydro-pyridazino[4,5-b]indol-1-one], the inhibition at 1 µM on MLK1 (GST-MLK1KD) was 0%. Besides, the inhibition at 0.3 µM in data set [1] was 14%.

In the case of `O=c1[nH]nc(-c2cccnc2)c2[nH]c3ccccc3c12` [Example 4c, 4-Pyridin-3-yl-2,5-dihydro-pyridazino[4,5-b]indol-1-one], on MLK1 (GST-MLK1KD), the inhibition at 1 µM was found to be 0%. In addition, the inhibition at 0.3 µM in data set [1] was found to be 14%.

Consider `O=c1[nH]nc(-c2cc3ccccc3o2)c2[nH]c3cccc(OCc4ccccc4)c3c12` [Example 4n, 4-Benzofuran-2-yl-9-benzyloxy-2,5-dihydro-pyridazino[4,5-b]indol-1-one], for which, at MLK1 (GST-MLK1KD), the inhibition at 1 µM amounted to 44%. The inhibition at 0.3 µM in data set [1] was 2%.

`O=c1[nH]nc(-c2ccccn2)c2[nH]c3ccccc3c12` [Example 4b, 4-Pyridin-2-yl-2,5-dihydro-pyridazino[4,5-b]indol-1-one]: the inhibition at 1 µM on MLK1 (GST-MLK1KD) came to 0%. For the same molecule, in data set [1], the inhibition at 0.3 µM came out at 7%.

As for `O=c1[nH]nc(-c2cc3ccccc3o2)c2[nH]c3ccc(O)cc3c12` [Example 4q, 4-Benzofuran-2-yl-8-hydroxy-2,5-dihydro-pyridazino[4,5-b]indol-1-one], the inhibition at 0.3 µM on MLK1 (GST-MLK1KD) (300 nM compound, read-out: MLK-1 % inhibition (@300 nM)) amounted to 67%; in data set [1], 21%. The IC50 at MLK1 (GST-MLK1KD) worked out at 138 nM.
